Where “and” joins values, the source holds several entries; their conditions need not be identical. Equal values may be shown once. Read-outs that look alike come from different tables or passages of the source. No end group written: not given here. Where only a bound is given, the exact number is not on record here.

We go through 14 compounds from US20050209157A1, “Short bioactive peptides and methods for their use” (priority 2001, published 2005).

The subject of test [1] is Pseudomonas aeruginosa H187. The class given is cell-based. The following applies: in µg/mL.
A further test deals with S. epidermidis C621. The class given is cell-based, Staphylococcus epidermidis. The note with it: Table 13; in µg/mL.
Test [2] relates to Pseudomonas aeruginosa 100609. The class given is cell-based. The following applies: Table 9; in µg/mL.
The test system of test [3] is Candida glabrata ATCC15126. The experiment in a line: Antimicrobial assays II, NCCLS broth microdilution MIC. The note with it: in µg/mL. In kind it is cell-based.
Test [4] has as its system Pseudomonas aeruginosa 105663. The class given is cell-based. The following applies: Table 9; in µg/mL.
In the next test the test system is P. aeruginosa H374. In kind it is cell-based, Pseudomonas aeruginosa. The following applies: in µg/mL.
In the next test the test system is Candida albicans 105. In kind it is cell-based. The note with it: Table 13; in µg/mL.
The test system of a further test is E. coli UB1005. The class given is cell-based, Escherichia coli. The following applies: Table 12.
The next test has as its system S. aureus (MRSA). The class given is cell-based, Staphylococcus aureus. The note with it: Table 13, strain SAP0017; in µg/mL.
A further test relates to S. typhimurium 14028S. In kind it is cell-based, Salmonella typhimurium. The note with it: Table 12.

Turning to FAKLLAKALKKFAL-NH2 [P119 (81)], the “MIC P. aeruginosa H187” value in test [1] (Table 9) and in test [1] (Table 12) was 16 each time. Besides, the “MIC S. epidermis C621” value against S. epidermidis C621 came out at 4. The “MIC P. aeruginosa Tb 100609” value in test [2] worked out at 16. The “MIC C. glabrata ATCC15126” value in [3] (Table 13) turned out to be 16. In addition, the “MIC P. aeruginosa Tb 105663” value in [4] is reported as 16. Moreover, the “MIC P. aeruginosa H374” value against P. aeruginosa H374 (Table 9) and against P. aeruginosa H374 (Table 12) was 8 throughout. Besides, the “MIC C. albicans 105” value against Candida albicans 105 is 16. In the test on E. coli UB1005, the MIC E. coli UB1005 came out at 4 µg/mL. In the test on S. aureus (MRSA), the “MIC S. aureus SAP0017” value is 8. Further, the MIC S. typhimurium 14028S against S. typhimurium 14028S is 8 µg/mL.
On to FALALKALKKLAKKLKKLAKKAL-NH2 [P25 (10)], for which the “MIC P. aeruginosa H187” value in [1] (Table 9) and in test [1] (Table 12) was 8 throughout. In addition, the “MIC S. epidermis C621” value in the test on S. epidermidis C621 was found to be 4. In test [2], the “MIC P. aeruginosa Tb 100609” value amounted to 8. Moreover, the “MIC C. glabrata ATCC15126” value in test [3] (Table 13) came to 32. Besides, in [4], the “MIC P. aeruginosa Tb 105663” value is 8. For the same compound, the “MIC P. aeruginosa H374” value against P. aeruginosa H374 (Table 9) and in the test with P. aeruginosa H374 (Table 12) was 8 throughout. In the test on Candida albicans 105, the “MIC C. albicans 105” value was 32. This compound registered an MIC E. coli UB1005 against E. coli UB1005 of 8 µg/mL. Moreover, in the test with S. aureus (MRSA), the “MIC S. aureus SAP0017” value stood at 16. Besides, the MIC S. typhimurium 14028S against S. typhimurium 14028S came out at 8 µg/mL.
With FAKKLAKKLKKLAKLALAK-NH2 [P41 (23)], the “MIC P. aeruginosa H187” value in [1] (Table 8) and in test [1] (Table 9) was 8 each time. Also, the “MIC P. aeruginosa Tb 100609” value in test [2] worked out at 8. Besides, the “MIC C. glabrata ATCC15126” value in test [3] (Table 8) worked out at 32. The “MIC P. aeruginosa Tb 105663” value in [4] is 8. Moreover, the “MIC P. aeruginosa H374” value against P. aeruginosa H374 (Table 9) amounted to 4.
On to FAKKLAKKLKKLAKKLAK-OH [P71 (47)], for which the “MIC P. aeruginosa H187” value in test [1] (Table 8) and in [1] (Table 9) was 8 each time. Besides, in test [2], the “MIC P. aeruginosa Tb 100609” value is reported as 16. Further, the “MIC C. glabrata ATCC15126” value in test [3] (Table 8) is reported as 32. For the same compound, in test [4], the “MIC P. aeruginosa Tb 105663” value is given as 16. Moreover, the “MIC P. aeruginosa H374” value in the test with P. aeruginosa H374 (Table 9) was found to be 4.
Consider FAKKLKKLAKLAKKL-NH2 [P46 (28)], for which the “MIC P. aeruginosa H187” value in [1] (Table 8) is 8 and 16; in [1] (Table 9), 16. The “MIC P. aeruginosa Tb 100609” value in [2] amounted to 16. The “MIC C. glabrata ATCC15126” value in test [3] (Table 8) turned out to be 32. For the same compound, the “MIC P. aeruginosa Tb 105663” value in test [4] is on record as 32. Besides, the “MIC P. aeruginosa H374” value against P. aeruginosa H374 (Table 9) is on record as 4.
On to FAKKLAKLAKKALAL-NH2 [P39 (21)], for which the “MIC P. aeruginosa H187” value in test [1] (Table 8) and in [1] (Table 9) was 32 throughout. Further, the “MIC P. aeruginosa Tb 100609” value in test [2] is 32. Also, the “MIC C. glabrata ATCC15126” value in [3] (Table 8) worked out at 16. The “MIC P. aeruginosa Tb 105663” value in test [4] stood at 32. In addition, in the test with P. aeruginosa H374 (Table 9), the “MIC P. aeruginosa H374” value is 16.
Turning to KYKKALKKLAKLL-NH2 [P146 (108)], the “MIC P. aeruginosa H187” value in test [1] (Table 9) and in test [1] (Table 12) was 4 in each case. For the same compound, the “MIC S. epidermis C621” value in the test on S. epidermidis C621 came to 8. Also, in test [2], the “MIC P. aeruginosa Tb 100609” value is given as 8. In addition, the “MIC C. glabrata ATCC15126” value in test [3] (Table 13) was determined as 16. In addition, in test [4], the “MIC P. aeruginosa Tb 105663” value was 8. Besides, the “MIC P. aeruginosa H374” value in the test on P. aeruginosa H374 (Table 9) and in the test on P. aeruginosa H374 (Table 12) was 2 throughout. For the same compound, the “MIC C. albicans 105” value against Candida albicans 105 came to 8. In the test on E. coli UB1005, this compound displayed an MIC E. coli UB1005 of 2 µg/mL. Moreover, in the test on S. aureus (MRSA), the “MIC S. aureus SAP0017” value was 16. This compound returned an MIC S. typhimurium 14028S against S. typhimurium 14028S of 4 µg/mL.
Take FAKLLAKALKKLL-NH2 [P55 (35)]: the “MIC P. aeruginosa H187” value in [1] (Table 9) and in test [1] (Table 12) was 8 in each case. In the test with S. epidermidis C621, the “MIC S. epidermis C621” value was 2. The “MIC P. aeruginosa Tb 100609” value in test [2] was 8. The “MIC C. glabrata ATCC15126” value in test [3] (Table 13) was found to be 8. Besides, the “MIC P. aeruginosa Tb 105663” value in [4] amounted to 16. The “MIC P. aeruginosa H374” value against P. aeruginosa H374 (Table 9) and against P. aeruginosa H374 (Table 12) was 8 throughout. For the same compound, in the test on Candida albicans 105, the “MIC C. albicans 105” value amounted to 16. In the test on E. coli UB1005, this compound returned an MIC E. coli UB1005 of 4 µg/mL. In the test with S. aureus (MRSA), the “MIC S. aureus SAP0017” value amounted to 4. The MIC S. typhimurium 14028S in the test on S. typhimurium 14028S was determined as 4 µg/mL.
In the case of FAKLLALALKKAL-NH2 [P97 (165)], the “MIC P. aeruginosa H187” value in test [1] (Table 9) and in test [1] (Table 12) was 16 each time. The “MIC S. epidermis C621” value against S. epidermidis C621 is given as 4. Further, in [2], the “MIC P. aeruginosa Tb 100609” value is 16. Further, in [3] (Table 13), the “MIC C. glabrata ATCC15126” value is 16. The “MIC P. aeruginosa Tb 105663” value in [4] is 16. Moreover, the “MIC P. aeruginosa H374” value against P. aeruginosa H374 (Table 9) and in the test with P. aeruginosa H374 (Table 12) was 8 in each case. Moreover, the “MIC C. albicans 105” value with Candida albicans 105 is 16. In the test with E. coli UB1005, this compound showed an MIC E. coli UB1005 of 8 µg/mL. Also, the “MIC S. aureus SAP0017” value against S. aureus (MRSA) is on record as 8. Further, the MIC S. typhimurium 14028S in the test with S. typhimurium 14028S was found to be 16 µg/mL.
For the compound “MPKWKVFKKIEKVGRNIRNGIVKAGPAIAVLGEAKALG-NH2 [P12 (5)]”, the “MIC P. aeruginosa H187” value in test [1] (Table 8) and in test [1] (Table 9) was 16 throughout. Besides, in test [2], the “MIC P. aeruginosa Tb 100609” value came out at 8. For the same compound, the “MIC C. glabrata ATCC15126” value in test [3] (Table 8) is 128. Moreover, the “MIC P. aeruginosa Tb 105663” value in test [4] was found to be 8. For the same compound, in the test on P. aeruginosa H374 (Table 9), the “MIC P. aeruginosa H374” value stood at 8.
Take `CC(C)C[C@H](NC(=O)[C@H](C)NC(=O)[C@H](CC(C)C)NC(=O)[C@H](C)NC(=O)[C@H](CC(C)C)NC(=O)[C@H](CCCCN)NC(=O)[C@H](C)NC(=O)[C@H](CC(C)C)NC(=O)[C@H](CCCCN)NC(=O)[C@H](CCCCN)NC(=O)[C@H](C)NC(=O)[C@H](CC(C)C)NC(=O)[C@H](CCCCN)NC(=O)[C@H](CCCCN)NC(=O)[C@H](CC(C)C)NC(=O)[C@H](CCCCN)NC(=O)[C@H](CCCCN)NC(=O)[C@H](C)NC(=O)[C@H](CC(C)C)NC(=O)[C@H](CCCCN)NC(=O)[C@H](CCCCN)NC(=O)[C@H](C)NC(=O)[C@@H](N)Cc1ccccc1)C(N)=O` [P11 (4)]: in test [1] (Table 9), the “MIC P. aeruginosa H187” value was 16. Also, the “MIC P. aeruginosa Tb 100609” value in test [2] is reported as 16. The “MIC P. aeruginosa Tb 105663” value in [4] is 16. Moreover, the “MIC P. aeruginosa H374” value against P. aeruginosa H374 (Table 9) was 16.
“FAVGLRAIKRALKKLRRGVRKVAKDL-NH2 [P157 (119)]”: the “MIC P. aeruginosa H187” value in test [1] (Table 8) and in [1] (Table 9) was 8 throughout. Moreover, the “MIC P. aeruginosa Tb 100609” value in [2] was 16. The “MIC C. glabrata ATCC15126” value in [3] (Table 8) amounted to 64. For the same compound, in test [4], the “MIC P. aeruginosa Tb 105663” value worked out at 16. Moreover, the “MIC P. aeruginosa H374” value against P. aeruginosa H374 (Table 9) came out at 8.
Regarding “LPKWKVFKKIEKVGRNIRNGIVKAGPAIAVLGEAKALG-NH2 [P306 (150)]”, the “MIC P. aeruginosa H187” value in [1] (Table 8) and in [1] (Table 9) was 16 each time. Besides, the “MIC P. aeruginosa Tb 100609” value in [2] worked out at 16. Also, in test [3] (Table 8), the “MIC C. glabrata ATCC15126” value is on record as >128. Also, in [4], the “MIC P. aeruginosa Tb 105663” value is listed as 32. The “MIC P. aeruginosa H374” value in the test on P. aeruginosa H374 (Table 9) was 8.
`CC(C)C[C@H](NC(=O)[C@H](C)NC(=O)[C@H](CC(C)C)NC(=O)[C@H](CCCCN)NC(=O)[C@H](C)NC(=O)[C@H](CC(C)C)NC(=O)[C@H](CCCCN)NC(=O)[C@H](CCCCN)NC(=O)[C@H](C)NC(=O)[C@H](CC(C)C)NC(=O)[C@H](CCCCN)NC(=O)[C@H](C)NC(=O)[C@H](CC(C)C)NC(=O)[C@H](CCCCN)NC(=O)[C@H](CCCCN)NC(=O)[C@H](C)NC(=O)[C@@H](N)Cc1ccccc1)C(=O)O` [P61 (41)]: the “MIC P. aeruginosa H187” value in test [1] (Table 8) and in [1] (Table 9) was 8 throughout. The “MIC P. aeruginosa Tb 100609” value in test [2] is recorded as 16. For the same compound, the “MIC C. glabrata ATCC15126” value in test [3] (Table 8) amounted to 32. For the same compound, in [4], the “MIC P. aeruginosa Tb 105663” value amounted to 8. Moreover, the “MIC P. aeruginosa H374” value in the test with P. aeruginosa H374 (Table 9) is on record as 4.
